Activity calls are given as the source filed them. No cut-off for these calls is given here.

For one test, the system named is Plasmodium berghei. The test is described as follows: Antimalarial activity against blood-induced Plasmodium berghei infected in mouse at 640 mg/kg. The format is functional, organism-based. Details: dose 640 mg/kg.
Turning to `CCNCc1c(C)[nH]c2ccc(C)cc2c1=O`, the outcome was inactive.
`CCNCc1c(C)[nH]c2ccc(OC)cc2c1=O`: the outcome was inactive.
Same read-out and setting: the same measure for `CCN1Cc2c(C)nc3ccc(OC)cc3c2N(c2cccc(Cl)c2)C1`: “inactive”; for `CCNCc1c(C)nc2ccc(OC)cc2c1Nc1cccc(Cl)c1`: “inactive”; for `CCN1Cc2c(C)nc3ccc(C)cc3c2N(c2cccc(Cl)c2)C1`: “inactive”.
On the same count and under the same terms, the same measure for `CCN(CC)Cc1c(C)[nH]c2cc(Cl)ccc2c1=O`: “inactive”; for `CCN1Cc2c(/C=C/c3ccccc3)nc3ccc(OC)cc3c2N(c2cccc(Cl)c2)C1`: “inactive”.

For a further test, the system named is Plasmodium gallinaceum. The test is described as follows: Antimalarial activity against Plasmodium gallinaceum at 320 mg/kg by sporozoite-induced chick test. Details: dose 320 mg/kg. It is filed as functional, organism-based.
In the case of `CCN1Cc2c(/C=C/c3ccccc3)nc3ccc(OC)cc3c2N(c2cccc(Cl)c2)C1`, the result was inactive.

The record behind these values is ChEMBL document CHEMBL3243982, “Synthesis of pyrimido[5,4-c]quinolines and related quinolines as potential antimalarials” (J Med Chem, 1978).
